Where a name gives a salt, the structure may show the parent alone.

For data set [1], the system named is circulating platelet level. The data set is described as follows: Effect on thrombopenia induced by carboplatin in mice. The class given is in vivo. The conditions noted are these: carboplatin 150 mg/kg intraperitoneally, balbC mice, at nadir. An excerpt: Thrombopenia remains a pathology for which there are few effective treatments apart from the transfusion of platelet concentrates and thrombopoietin (Kaushansky, K. New Eng J Med (1998), 339, pp 746-754).
Anticancer chemotherapy constitutes one of the major causes of thrombopenia. One of the agents for chemotherapy, carboplatin, has been widely used to induce thrombopenia in mice and to thus be able to characterize the effect of compounds capable of improving the platelet level such as for example thrombopoietin (Hokom M M et al., Blood (1995), 86, pp 4486-4492).
150 mg/kg of carboplatin were administered intraperitoneally to balbC mice weighing 20 g. A blood sample was collected periodically by retro-orbital puncture and the circulating platelet level is determined by a haematology automated machine (MS9™ from Melet-Schloesing Laboratoires, Cergy-Pontoise, France). Under these conditions, a reversible thrombopenia is observed with a nadir situated 9 to 10 days after the administration of carboplatin (reduction in the circulating platelet level by 50-60%).
The compounds according to the invention or their solvent (a blank—control) are administered orally for 5 days by starting the treatment 7 days before the administration of carboplatin. The experiments were carried out on groups comprising 10-12 mice and the results are expressed as a mean±standard error. […]

As a reminder, the melting point is the temperature, or range, at which the solid turns liquid. Regarding `COC(=O)c1c(C)c(C(=O)c2ccc([N+](=O)[O-])c(OC)c2)n2cccc(OCc3ccccc3)c12`, the melting point was found to be 125 °C.

Regarding `COC(=O)c1ccc2c(OC)c(C)c(C(=O)c3ccc([N+](=O)[O-])c(OC)c3)n2c1`, the melting point was 211 °C.

Consider `COC(=O)c1c(C)c(C(=O)c2ccc([N+](=O)[O-])c(OC)c2)n2cccc(O)c12`, for which the melting point came out at 150 °C.

Regarding `COC(=O)c1c(C)c(C(=O)c2ccc([N+](=O)[O-])c(OC)c2)n2cc(OCc3ccccc3)ccc12`, the melting point was 179 °C.

Compound `COc1ccc(-c2c(C)c(C(=O)c3ccc([N+](=O)[O-])c(OC)c3)n3cc(C(N)=O)ccc23)cc1` had a melting point of 267 °C.

In the case of `COC(=O)c1cc(C(=O)c2c(C)c(-c3cccs3)c3ccccn23)ccc1N`, the melting point was determined as 162 °C.

Compound `CCOC(=O)COc1cccn2c(C(=O)c3ccc(N)c(OC)c3)c(C)c(C(=O)OC)c12` showed a melting point of 136 °C.

Turning to `COC(=O)c1ccc2c(OC)c(C)c(C(=O)c3ccc(N)c(OC)c3)n2c1`, the melting point came out at 193 °C.

In the case of `COc1cc(C(=O)c2c(C)c(-c3cccs3)c3ccccn23)ccc1N` (as salt: HCl) (hydrate or solvate), the melting point came out at 219 °C.

As for `COc1ccc2c(OC)c(C)c(C(=O)c3ccc(N)c(C(=O)O)c3)n2c1` (as salt: Na) (hydrate or solvate), the melting point is 318 °C.

In turn, `CNc1ccn2c(C(=O)c3ccc(N)c(OC)c3)c(C)c(C(=O)O)c2c1` (as salt: Na) (hydrate or solvate) displayed a melting point of 209 to 219 °C.

`COc1cc(C(=O)c2c(C)c(C(=O)O)c3cc(N(C)C)ccn23)ccc1N` (as salt: Na) (hydrate or solvate) gave a melting point of 222 to 227 °C.

For the compound `N.N.O=C([O-])C1(C(=O)[O-])CCC1.[Pt+2]` [carboplatin], the “reduction in the circulating platelet level” value in data set [1] is given as 50-60%.

The values above are taken from patent US7553845B2, “Substituted indolizine 1,2,3,6,7,8 derivatives, FGFs inhibitors, a method for the preparation thereof and pharmaceutical compositions containing said derivatives” (sanofi-aventis, priority 2003, dated 2009).
